According to patent US5686492A, “Disubstituted p-fluorobenzenesulfonamides” (Schering Aktiengesellschaft, priority 1994, dated 1997):

Key:
[1] = 19F NMR line width / signal intensity of the measuring fluorine atom; type: physicochemical; details: in comparison to prior art compound (compound of Example 2 with Y meaning hydrogen); for line width smaller by: signal of the measuring fluorine atom
Description: In comparison to the structurally closest compounds of the prior art, the compounds according to the invention show clearly thinner signals for the measuring fluorine atom, so that an identically intensive signal is obtained with a smaller dosage.

[2] = compatibility in comparison to structurally closest previously-known compound; type: in vivo; details: than structurally closest previously-known compound (compound of Example 2 with Y meaning hydrogen)
Description: (§1) An equally high (undesirable) histamine release is observed with the compound of Example 2 only with the 30-fold dosage of the above-mentioned previously-known comparison substance.

[3] = system: histamine release; test: histamine release in comparison to structurally closest previously-known compound; type: in vivo; details: multiple of the dosage of the previously-known comparison substance (compound of Example 2 with Y meaning hydrogen)
Description: as §1

line width smaller by [1] [%] | compatibility higher by [2] [%] | dosage giving equally high (undesirable) histamine release [3] | signal increase [1] [%] | Compound
12 | 50 | 30 -fold |  | O=C(O)CCS(=O)(=O)Nc1ccc(F)c(CC(=O)NC(CO)C(O)CO)c1C(F)(F)F (centres unmarked) [Example 2, 3-{N-[4-Fluoro-2-trifluoromethylphenyl-3-acetic acid-N-(1-hydroxy-2,3-dihydroxypropyl)-amide]-sulfamoyl}-propionic acid]
25 |  |  | ~50 | O=C(Cc1cc(NS(=O)(=O)CC(F)(F)F)cc(CC(=O)NC(CO)C(O)CO)c1F)NC(CO)C(O)CO (centres unmarked) [Example 6]
